Source: PubChem BioAssay (NCI)
Where “and” joins values, the source holds several entries; their conditions need not be identical. Equal values may be shown once.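 Interpolation was linear, between the two tested concentrations surrounding the appropriate level; five concentrations were tested over 48 hours in 96-well plates. GI50 marks 50% less growth. Definition used: TGI = concentration required for complete inhibition of growth.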

Columns and labels:
Assay in all cases: NCI-60 cell line screen, 48 h
[1] = system: CAKI-1 renal
[2] = system: HS 578T breast
[3] = system: NCI-H23 lung
[4] = system: SNB-19 CNS
[5] = system: HCC-2998 colon
[6] = system: SF-539 CNS
[7] = system: MDA-MB-435
[8] = system: A498 renal
[9] = system: OVCAR-8 ovarian
[10] = system: SNB-75 CNS

Row | SMILES | GI50 [1] | TGI [1] | GI50 [2] | TGI [2] | GI50 [3] | TGI [3] [µM] | GI50 [4] | TGI [4] [µM] | GI50 [5] | TGI [5] | GI50 [6] | TGI [6] | GI50 [7] | TGI [7] | GI50 [8] | TGI [8] | GI50 [9] | TGI [9] | GI50 [10] | TGI [10]
1 | CC(c1ccccc1)[C@@H](C(=O)Nc1ccc(I)cc1F)N1C(=O)N[C@H](c2ccc(OC[C@H](O)CO)cc2)C1=O (some centres undefined) | 16.2 µM | > 25 µM | 16.3 µM | > 25 µM | 0.902 µM | > 25 | 6.63 µM | > 25 | 0.445 µM | > 25 µM | 15.5 µM | > 25 µM | 0.0817 µM | > 25 µM | 0.541 µM | 2.3 µM | > 15.9 µM | > 25 µM | > 11.1 µM | > 25 µM
2 | CCN(CC)CCN1C(=O)C2C3C(=O)CC(C)(CC3C)C2C1=O (centres undefined) | > 100 µM | > 100 µM | > 100 µM | > 100 µM | > 100 µM | > 100 | > 100 µM | > 100 | > 100 µM | > 100 µM | > 100 µM | > 100 µM | > 100 µM | > 100 µM | > 100 µM | > 100 µM | > 100 µM | > 100 µM | > 100 µM | > 100 µM
3 | COc1ccc(Cl)cc1Nc1nc(C(F)(F)F)ccc1C(=O)N/N=C/c1cccnc1 | 3.84 µM | > 100 µM | 11.8 µM | > 100 µM | 5.34 µM | > 100 | 3.78 µM | > 100 | 1.99 µM | > 100 µM | 5.12 µM | > 100 µM | 5.63 µM | > 100 µM | 1.23 µM | > 100 µM | 2.91 µM | > 100 µM | 3.87 µM | 49.7 µM
4 | Nc1nnnc2nc[nH]c12 | 0.221 µM |  | 3.51 µM | > 65.5 µM | 3.19 µM | 40.9 | 6.17 µM | > 100 | 1.26 µM | > 34.7 µM | 1.63 µM | 13.5 µM | 0.542 µM | 2.57 µM | 1.87 µM | 15.3 µM | 1.26 µM | > 100 µM |  | > 100 µM
5 | COc1cccc(C2=C(c3cn(C)c4cc(F)ccc34)C(=O)NC2=O)c1 | > 13.4 µM | > 25 µM | > 24 µM | > 25 µM | > 25 µM | > 25 | > 25 µM | > 25 | > 25 µM | > 25 µM | > 25 µM | > 25 µM | 11.7 µM | > 25 µM | 5.96 µM | > 25 µM | > 18.2 µM | > 25 µM | 2.42 µM | > 25 µM
6 | Nc1cc(C(F)(F)F)c(-c2cc(N3CCOCC3)nc(N3CCOCC3)n2)cn1 | 0.441 µM and 0.806 µM | 4.05 µM and > 24.3 µM | 0.313 µM and 0.522 µM | 1.55 µM and 5.2 µM | 1.17 µM and 1.28 µM | > 84.6 | 2.28 µM and 2.71 µM | > 100 | 0.85 µM and 1.12 µM | 4.14 µM and 5.45 µM | 0.976 µM and 1.39 µM | 3.42 µM and 4.35 µM | 0.275 µM and 0.29 µM | 1.03 µM and 1.32 µM | 0.189 µM and 0.205 µM | 0.713 µM and 1.09 µM | 1.67 µM and 1.55 µM | > 9.24 µM and 11.8 µM | 0.179 µM and 0.377 µM | 1.46 µM and 2.02 µM
7 | C=C1C(=O)O[C@H]2[C@H]1CC/C(Cn1cc(-c3cccc(Cl)c3)nn1)=C\CC[C@@]1(C)O[C@@H]21 | 0.869 µM | 2.13 µM | 2.26 µM | 5.56 µM | 1.58 µM | 3.27 | 2.4 µM | 6.45 | 1.64 µM | 3.29 µM | 0.258 µM | 0.791 µM | 0.591 µM | 1.98 µM | 1.52 µM | 2.97 µM | 1.31 µM | 2.85 µM | 1.16 µM | 2.39 µM
8 | O=Cc1c(-c2ccccc2)[nH]c2ccccc2c1=O |  | > 100 µM |  | 98.9 µM |  | > 100 |  | > 100 |  | > 100 µM |  | > 100 µM |  | 88.1 µM |  | > 100 µM |  | > 100 µM |  | 86.4 µM
9 | Cc1nc(-c2cnc(NC(C)C)n(C)c2=O)ccc1Oc1ccnc(-c2cnn(C)c2)c1 | 7.51 µM | 65.2 µM | 12.2 µM | 67.6 µM | 13.3 µM | > 100 | 25.2 µM | > 100 | 24 µM | > 100 µM | 7.5 µM | 46.8 µM | 2.98 µM | 18.2 µM | 4.8 µM | 38.6 µM | 21.3 µM | > 100 µM | 12.3 µM | 47.7 µM
10 | COc1ccccc1/C=C/C1=C(C)CCC(c2ccccc2OC)C1C (centres undefined) | 0.157 µM | 7.69 µM | 0.112 µM | 0.708 µM | 0.188 µM | 13.6 | 0.226 µM | > 100 | 0.249 µM | 1.56 µM | 0.0833 µM | 0.215 µM | 0.0595 µM | 0.154 µM | 0.0923 µM | 0.534 µM | 0.137 µM |  | 0.131 µM | 76.5 µM
11 | COC(=O)C1(C)CC2C(C)(CCC3(C)C4=CC=C5C(=CC(=O)C(O)=C5C)C4(C)CCC23C)CC1O (centres undefined) |  | 2.27 µM |  | 14.4 µM |  |  |  | 2.81 |  | 2.9 µM |  | 3.3 µM |  | 2.31 µM |  | 3.51 µM |  | 2.38 µM |  | 3.54 µM
12 | CCOc1ccc2c(c1)CN(Cc1ccc(Cl)cc1)CO2 | 16.3 µM | 43.2 µM | 18.2 µM | 53.7 µM | 25.8 µM | 94.5 | 24.6 µM | > 100 | 18.7 µM | 35 µM | 15.8 µM | 32.4 µM | 15.2 µM | 29.5 µM | 2.09 µM | 19.2 µM | 18 µM | 38.3 µM | 15 µM | 45.8 µM
13 | COc1cccc(/C=C/c2ccnc3ccccc23)c1OC |  | > 10 µM |  | > 10 µM |  | > 10 |  | > 10 |  | > 10 µM |  | > 10 µM |  | > 10 µM |  | > 10 µM |  | > 10 µM |  | > 10 µM
14 | C/C(=N/O)c1ccc2c(c1)/C(=N/O)c1ccccc1-2 | 20.3 µM | 44.8 µM | 29.4 µM | 99.2 µM | 18.3 µM | 34.2 | 33.8 µM | > 100 | 20.3 µM | 35.9 µM | 21.6 µM | 50 µM | 18.7 µM | 39.4 µM | 34.9 µM | > 100 µM | 21.4 µM | 46.4 µM | 17.7 µM | 44.2 µM
15 | CCCCN=C(N)c1ccc(N2CCCN(c3ccc(C(N)=NCCCC)cc3)CC2)cc1 | > 72.3 µM | > 100 µM | 5.02 µM | > 90.7 µM | 5.67 µM | > 100 | > 21.4 µM | > 100 | 8.88 µM | 58.2 µM | 7.34 µM | > 50.1 µM | 14.8 µM | > 96.6 µM | 0.529 µM | 30.3 µM | 14.1 µM | > 100 µM | 6.29 µM | > 100 µM
16 | NC(Cc1c[nH]c2ccc(F)cc12)C(=O)O (centres undefined) | 1270 µM | > 2500 µM | 506 µM | 1590 µM | 1540 µM | > 2500 | 1680 µM | > 2500 | 1810 µM | > 2500 µM | 506 µM | 1590 µM | 785 µM | > 2500 µM | 580 µM | 1630 µM | 751 µM | > 2500 µM | 489 µM | 1390 µM
17 | O=c1c2ccccc2nc(-c2ccccc2Cl)n1-c1nnc(C(F)(F)F)s1 | 2.82 µM | 10.1 µM | 2.38 µM | 9.3 µM | 3.23 µM | 17.3 | 3.66 µM | > 100 | 4.24 µM | 19.6 µM | 3.21 µM | 13 µM | 3.19 µM | 53.1 µM | 1.77 µM | 5.07 µM | 3.37 µM | > 100 µM | 3.47 µM | > 100 µM
18 | CCCCCCCCCCCCCCCCCCOc1ccccc1CC(=O)OCC[N+](CC)(CC)CC | 1.42 µM | 4.47 µM | 1.34 µM | 4.55 µM | 1.16 µM | 4.09 | 1.52 µM | 5.6 | 1.22 µM | 3.9 µM | 1.62 µM | 5.82 µM | 1.55 µM | 6.2 µM | 2.13 µM | 8.49 µM | 1.69 µM | 8.3 µM | 0.968 µM | 4.23 µM
19 | CCOC(=O)/C(C#N)=C1\SS/C(=C(/C#N)C(=O)OCC)S1 | 4.38 µM | 18.6 µM | 47.9 µM | > 100 µM | 23.5 µM | 61.2 | 35.8 µM | > 100 | 20.1 µM | 39.9 µM | 22.2 µM | 42.8 µM | 17.1 µM | 33.1 µM | 63.9 µM | > 100 µM | 20.3 µM | 41.1 µM | 22.4 µM | 57.5 µM
20 | CCOC(=O)c1c(NC(=O)c2ccccc2)sc2c3c(ccc12)OCN(C)C3 | 1.59 µM | 2.99 µM | 1.9 µM | 4.16 µM | 1.78 µM | 3.78 | 1.56 µM | 3.1 | 1.03 µM | 2.35 µM | 1.63 µM | 3.05 µM | 1.64 µM | 3.02 µM | 1.65 µM | 3.21 µM |  |  | 1.4 µM | 2.74 µM
